Counter-ions that a name gives are not always drawn. Like-named read-outs stand apart in the source and are kept apart here.
Key:
Format in all cases: in vivo
cucumber downy mildew [1] = assay: Test on preventive effect against cucumber downy mildew
Description: Cucumber (cultivar: Suyo) was cultivated in a polyethylene pot having a diameter of 7.5 cm, and when the cucumber reached two-leaf stage, a drug solution having the respective test compounds adjusted to the predetermined concentrations, was applied in a sufficient amount (20 ml) by means of a spray gun. After the applied solution dried, the cucumber was sprayed and inoculated with a suspension of spores of cucumber downy mildew and kept in a humidified chamber at 20° C. for 4 hours. Thereafter, the cucumber was kept in a thermostatic chamber at 20° C. for 7 days, whereupon the lesion area ratio in the first leaf was investigated, and the control value was obtained by the following formula. Here, the test was carried out in double series.
The lesion area ratio in non-treated area was obtained in the same manner as in the treated area except that instead of the drug solution, water was applied by means of a spray gun. Control value=(b−a)/b×100 where a is the lesion area ratio in treated area, and b is the lesion area ratio in non-treated area.
Further, a theoretical value can be calculated by the Colby formula. If the experimental value is higher than the theoretical value by the Colby formula, the fungicidal composition for agricultural or horticultural use of the present invention has a synergistic effect for controlling the plant disease. In this context, the theoretical values by the Colby formula are also shown in brackets ( ) in Table 1.

cucumber downy mildew [2] = assay: Test on curative effect against cucumber downy mildew
Description: Cucumber (cultivar: Suyo) was cultivated in a polyethylene pot having a diameter of 7.5 cm, and when it reached two-leaf stage, the cucumber was sprayed and inoculated with a suspension of spores of cucumber downy mildew and kept in a humidified chamber at 20° C. for 4 hours. Then, after drying the crop plant, a drug solution having the respective test compounds adjusted to the predetermined concentrations, was applied in a sufficient amount (20 ml) by means of a spray gun. After the sprayed solution dried, it was kept in a thermostatic chamber at 20° C. for 7 days, whereupon the lesion area ratio in the first leaf was investigated, and the control value was obtained by the following formula. Here, the test was carried out in double series.
The lesion area in non-treated area was obtained in the same manner as in the treated area except that instead of the drug solution, water was applied by means of a spray gun. Control value=(b−a)/b×100 where a is the lesion area ratio in treated area, and b is the lesion area ratio in non-treated area.
Further, a theoretical value can be calculated by the Colby formula. If the experimental value is higher than the theoretical value by the Colby formula, the fungicidal composition for agricultural or horticultural use of the present invention has a synergistic effect for controlling the plant disease. In this context, the theoretical values by the Colby formula are also shown in brackets ( ) in Table 2.

tomato late blight = test system: tomato late blight
[3] = propamocarb hydrochloride 1000 ppm alone (Compound No. 1 0 ppm)
[4] = propamocarb hydrochloride 2000 ppm alone (Compound No. 1 0 ppm)
[5] = propamocarb hydrochloride 4000 ppm alone (Compound No. 1 0 ppm)

Structure (SMILES)	Control value in the test on preventive effect against cucumber downy mildew (cucumber downy mildew [1]; Compound No. 1 0.03 ppm alone (propamocarb hydrochloride 0 ppm))	Control value in the test on preventive effect against cucumber downy mildew (cucumber downy mildew [1]; Compound No. 1 0.13 ppm alone (propamocarb hydrochloride 0 ppm))	Control value in the test on curative effect against cucumber downy mildew (cucumber downy mildew [2]; Compound No. 1 125 ppm alone (propamocarb hydrochloride 0 ppm))	Control value in the test on curative effect against cucumber downy mildew (cucumber downy mildew [2]; Compound No. 1 500 ppm alone (propamocarb hydrochloride 0 ppm))	Control value in the test on preventive effect against tomato late blight (tomato late blight; Compound No. 1 0.5 ppm alone (propamocarb hydrochloride 0 ppm))	Control value in the test on preventive effect against cucumber downy mildew (cucumber downy mildew [1]; [3])	Control value in the test on preventive effect against cucumber downy mildew (cucumber downy mildew [1]; [4])	Control value in the test on preventive effect against cucumber downy mildew (cucumber downy mildew [1]; [5])	Control value in the test on curative effect against cucumber downy mildew (cucumber downy mildew [2]; [3])	Control value in the test on curative effect against cucumber downy mildew (cucumber downy mildew [2]; [4])	Control value in the test on curative effect against cucumber downy mildew (cucumber downy mildew [2]; [5])	Control value in the test on preventive effect against tomato late blight (tomato late blight; [3])	Control value in the test on preventive effect against tomato late blight (tomato late blight; [4])	Control value in the test on preventive effect against tomato late blight (tomato late blight; [5])
Cc1ccc(-c2c(Cl)nc(C#N)n2S(=O)(=O)N(C)C)cc1 [Compound No. 1, 4-Chloro-2-cyano-1-dimethylsulfamoyl-5-(4-methylphenyl)imidazole]	0	90	0	90	67	–	–	–	–	–	–	–	–	–
CCCOC(=O)NCCCN(C)C [propamocarb hydrochloride]	–	–	–	–	–	0	10	30	10	20	30	0	0	0

Source: US7851497B2 (priority 2004, dated 2010)
